Legend:
Assay type in all cases: in vivo
Avena (Ave) [1] = assay: Example B4 post-emergence herbicidal action, MERGE oil additive 0.7% (Table B4); parameters: key: 1=total damage; 9=no action; settings: 500 g of active substance per hectare; applied at 3- to 6-leaf stage; MERGE oil additive 0.7% by weight of the spray mixture; evaluation 3 weeks after application; scale of nine ratings
Protocol: (§1) Monocotyledonous and dicotyledonous weeds are grown in standard soil in plastics pots under greenhouse conditions. The test substances are applied to the test plants at the 3- to 6-leaf stage. The test substances are applied at a rate of application of 500 g of active substance per hectare in the form of an aqueous suspension (prepared from a 25% wettable powder (Example F3, b)) or in the form of an emulsion (prepared from a 25% emulsifiable concentrate (Example F1, c)) (500 liters of water/ha). The evaluation is carried out 3 weeks after application, using a scale of nine ratings (1=total damage, 9=no action). Ratings of from 1 to 4 (especially from 1 to 3) indicate good to very good herbicidal action. Herbicidal Action After the Emergence of the Plants (Post-emergence Action) of Compounds of the Present Invention (for Description See Example B2) Test plants: Avena (Ave), Lolium (Lol), Setaria (Set).

Lolium (Lol) [2] = assay: as above; parameters: key: 1=total damage; 9=no action; settings: 500 g of active substance per hectare; applied at 3- to 6-leaf stage; MERGE oil additive 0.7% by weight of the spray mixture; evaluation 3 weeks after application; scale of nine ratings
Protocol: as §1

Setaria (Set) [3] = assay: as above; parameters: key: 1=total damage; 9=no action; settings: 500 g of active substance per hectare; applied at 3- to 6-leaf stage; MERGE oil additive 0.7% by weight of the spray mixture; evaluation 3 weeks after application; scale of nine ratings
Protocol: as §1

Avena (Ave) [4] = assay: Example B3 pre-emergence herbicidal action, MERGE oil additive 0.7% (Table B3); parameters: key: 1=total damage; 9=no action; settings: 500 g of active substance/ha; MERGE oil additive 0.7% by weight of the spray mixture; evaluation 3 weeks after application; scale of nine ratings
Protocol: (§2) Monocotyledonous and dicotyledonous weeds are sown in standard soil in plastics pots. Immediately after sowing, the test substances are applied in the form of an aqueous suspension (prepared from a 25% wettable powder (Example F3, b)) or in the form of an emulsion (prepared from a 25% emulsifiable concentrate (Example F1, c)) (500 liters of water/ha). The rate of application is 500 g of active substance/ha. The test plants are then grown in the greenhouse under optimum conditions. The evaluation is carried out 3 weeks after application, sing a scale of nine ratings (1=total damage, 9=no action). Ratings of from 1 to 4 (especially from 1 to 3) indicate good to very good herbicidal action. Test plants: Avena (Ave), Lolium (Lol), Setaria (Set).

Lolium (Lol) [5] = assay: as above; parameters: key: 1=total damage; 9=no action; settings: 500 g of active substance/ha; MERGE oil additive 0.7% by weight of the spray mixture; evaluation 3 weeks after application; scale of nine ratings
Protocol: as §2

Setaria (Set) [6] = assay: as above; parameters: key: 1=total damage; 9=no action; settings: 500 g of active substance/ha; MERGE oil additive 0.7% by weight of the spray mixture; evaluation 3 weeks after application; scale of nine ratings
Protocol: as §2

Alopecurus (Alo) [7] = assay: Example B1 pre-emergence herbicidal action (comparison test); parameters: key: 1=total damage; 9=no action; settings: 500 g of active ingredient/ha; 3 weeks after application; scale of nine ratings, 1 to 4 = good to very good action
Protocol: (§3) Monocotyledonous and dicotyledonous weeds are sown in plastics pots in standard soil. Immediately after sowing, the test substances are applied in the form of an aqueous suspension (prepared from a 25% wettable powder (Example F3, b)) or in the form of an emulsion (prepared from a 25% emulsifiable concentrate (Example F1, c)) (500 liters of water/ha). The rate of application is 500 g of active substance/ha. The test plants are then grown in the greenhouse under optimum conditions. The evaluation is carried out 3 weeks after application, using a scale of nine ratings (1=total damage, 9=no action). Ratings of from 1 to 4 (especially from 1 to 3) indicate good to very good herbicidal action. Test plants: Alopecurus (Alo), Avena (Ave), Lolium (Lol), Setaria (Set), Panicum (Pan), Sorghum (Sor), Digitaria (Dig), Echinochloa (Ech) and Brachiaria (Bra).

Avena (Ave) [8] = assay: as above; parameters: key: 1=total damage; 9=no action; settings: 500 g of active ingredient/ha; 3 weeks after application; scale of nine ratings, 1 to 4 = good to very good action
Protocol: as §3

Brachiaria (Bra) [9] = assay: as above; parameters: key: 1=total damage; 9=no action; settings: 500 g of active ingredient/ha; 3 weeks after application; scale of nine ratings, 1 to 4 = good to very good action
Protocol: as §3

Echinochloa (Ech) = assay: as above; parameters: key: 1=total damage; 9=no action; settings: 500 g of active ingredient/ha; 3 weeks after application; scale of nine ratings, 1 to 4 = good to very good action
Protocol: as §3

Lolium (Lol) [10] = assay: as above; parameters: key: 1=total damage; 9=no action; settings: 500 g of active ingredient/ha; 3 weeks after application; scale of nine ratings, 1 to 4 = good to very good action
Protocol: as §3

Panicum (Pan) [11] = assay: as above; parameters: key: 1=total damage; 9=no action; settings: 500 g of active ingredient/ha; 3 weeks after application; scale of nine ratings, 1 to 4 = good to very good action
Protocol: as §3

Setaria (Set) [12] = assay: as above; parameters: key: 1=total damage; 9=no action; settings: 500 g of active ingredient/ha; 3 weeks after application; scale of nine ratings, 1 to 4 = good to very good action
Protocol: as §3

Sorghum (Sor) [13] = assay: as above; parameters: key: 1=total damage; 9=no action; settings: 500 g of active ingredient/ha; 3 weeks after application; scale of nine ratings, 1 to 4 = good to very good action
Protocol: as §3

Digitaria (Dig) [14] = assay: as above; settings: 500 g of active ingredient/ha; 3 weeks after application; scale of nine ratings, 1 to 4 = good to very good action
Protocol: as §3

Alopecurus (Alo) [15] = assay: Example B2 post-emergence herbicidal action (comparison test); parameters: key: 1=total damage; 9=no action; settings: 250 g of active ingredient/ha; 3- to 6-leaf stage; 3 weeks after application; scale of nine ratings, 1 to 4 = good to very good action
Protocol: (§4) Monocotyledonous and dicotyledonous weeds are grown in standard soil in plastics pots under greenhouse conditions. The test substances are applied to the test plants at the 3- to 6-leaf stage. […] suspension (prepared from a 25% wettable powder (Example F3, b)) or in the form of an emulsion (prepared from a 25% emulsifiable concentrate (Example F1, c)) (500 liters of water/ha). The evaluation is carried out 3 weeks after application, using a scale of nine ratings (1=total damage, 9=no action). Ratings of from 1 to 4 (especially from 1 to 3) indicate good to very good herbicidal action. Test plants: Alopecurus (Alo), Avena (Ave), Lolium (Lol), Setaria (Set), Panicum (Pan), Sorghum (Sor), Digitaria (Dig), Echinocloa (Ech) and Brachiaria (Bra).

Avena (Ave) [16] = assay: as above; parameters: key: 1=total damage; 9=no action; settings: 250 g of active ingredient/ha; 3- to 6-leaf stage; 3 weeks after application; scale of nine ratings, 1 to 4 = good to very good action
Protocol: as §4

Brachiaria (Bra) [17] = assay: as above; parameters: key: 1=total damage; 9=no action; settings: 250 g of active ingredient/ha; 3- to 6-leaf stage; 3 weeks after application; scale of nine ratings, 1 to 4 = good to very good action
Protocol: as §4

Echinocloa (Ech) = assay: as above; parameters: key: 1=total damage; 9=no action; settings: 250 g of active ingredient/ha; 3- to 6-leaf stage; 3 weeks after application; scale of nine ratings, 1 to 4 = good to very good action
Protocol: as §4

Lolium (Lol) [18] = assay: as above; parameters: key: 1=total damage; 9=no action; settings: 250 g of active ingredient/ha; 3- to 6-leaf stage; 3 weeks after application; scale of nine ratings, 1 to 4 = good to very good action
Protocol: as §4

Panicum (Pan) [19] = assay: as above; parameters: key: 1=total damage; 9=no action; settings: 250 g of active ingredient/ha; 3- to 6-leaf stage; 3 weeks after application; scale of nine ratings, 1 to 4 = good to very good action
Protocol: as §4

Setaria (Set) [20] = assay: as above; parameters: key: 1=total damage; 9=no action; settings: 250 g of active ingredient/ha; 3- to 6-leaf stage; 3 weeks after application; scale of nine ratings, 1 to 4 = good to very good action
Protocol: as §4

Sorghum (Sor) [21] = assay: as above; parameters: key: 1=total damage; 9=no action; settings: 250 g of active ingredient/ha; 3- to 6-leaf stage; 3 weeks after application; scale of nine ratings, 1 to 4 = good to very good action
Protocol: as §4

Digitaria (Dig) [22] = assay: as above; settings: 250 g of active ingredient/ha; 3- to 6-leaf stage; 3 weeks after application; scale of nine ratings, 1 to 4 = good to very good action
Protocol: as §4

| SMILES | Post-emergence action, rating, Ave (Avena (Ave) [1]) | Post-emergence action, rating, Lol (Lolium (Lol) [2]) | Post-emergence action, rating, Set (Setaria (Set) [3]) | further results |
| --- | --- | --- | --- | --- |
| CCc1cc(C)cc(CC)c1-c1c(O)n2n(c1=O)CC(O)C(Cl)C2 (stereo not drawn) [1.10] | 1 | 1 | 1 |  |
| CCc1cc(C)cc(CC)c1-c1c(O)n2n(c1=O)CC(OC(C)C(=O)OC)CC2 (stereo not drawn) [1.26] | 1 | 2 | 1 |  |
| CCc1cc(C)cc(CC)c1-c1c(O)n2n(c1=O)CC(OCCOCCOC)C(O)C2 (stereo not drawn) [1.35] | 1 | 1 | 1 | Pre-emergence action, rating, Ave (Avena (Ave) [4]): 1; Pre-emergence action, rating, Lol (Lolium (Lol) [5]): 1; Pre-emergence action, rating, Set (Setaria (Set) [6]): 1 |
| CCc1cc(C)cc(CC)c1-c1c(OC(=O)C(C)(C)C)n2n(c1=O)CC(OC)C(OC)C2 (stereo not drawn) [1.08] | 1 | 1 | 1 |  |
| CCc1cc(C)cc(CC)c1-c1c(O)n2n(c1=O)CC(OC(C)C)CC2 (stereo not drawn) [1.14] | 1 | 2 | 2 |  |
| CCc1cc(C)cc(CC)c1-c1c(O)n2n(c1=O)CC(=NOC)CC2 [1.30] | 1 | 1 | 1 |  |
| CCc1cc(C)cc(CC)c1-c1c(O)n2n(c1=O)CC(OCC(=O)OC)CC2 (stereo not drawn) [1.23] | 1 | 1 | 1 |  |
| Cc1cc(C)c(-c2c(OC(=O)C(C)(C)C)n3n(c2=O)CCCC3)c(C)c1 [compound A, reference compound] |  |  |  | Pre-emergence action rating, Alo (Alopecurus (Alo) [7]): 2; Pre-emergence action, rating, Ave (Avena (Ave) [8]): 4; Pre-emergence action rating, Bra (Brachiaria (Bra) [9]): 3; Pre-emergence action rating, Ech (Echinochloa (Ech)): 5; Pre-emergence action, rating, Lol (Lolium (Lol) [10]): 1; Pre-emergence action rating, Pan (Panicum (Pan) [11]): 1; Pre-emergence action, rating, Set (Setaria (Set) [12]): 2; Pre-emergence action rating, Sor (Sorghum (Sor) [13]): 4; Pre-emergence action rating, Dig (Digitaria (Dig) [14]): 4; Post-emergence action rating, Alo (Alopecurus (Alo) [15]): 3; Post-emergence action, rating, Ave (Avena (Ave) [16]): 3; Post-emergence action rating, Bra (Brachiaria (Bra) [17]): 2; Post-emergence action rating, Ech (Echinocloa (Ech)): 1; Post-emergence action, rating, Lol (Lolium (Lol) [18]): 2; Post-emergence action rating, Pan (Panicum (Pan) [19]): 1; Post-emergence action, rating, Set (Setaria (Set) [20]): 2; Post-emergence action rating, Sor (Sorghum (Sor) [21]): 3; Post-emergence action rating, Dig (Digitaria (Dig) [22]): 2 |
| CCc1cc(C)cc(CC)c1-c1c(O)n2n(c1=O)CC(O)C(O)C2 (stereo not drawn) [1.39] | 1 | 1 | 1 |  |
| CCc1cc(C)cc(CC)c1-c1c(O)n2n(c1=O)CC(OCCO)CC2 (stereo not drawn) [1.17] | 1 | 1 | 2 |  |
| CCc1cc(C)cc(CC)c1-c1c(O)n2n(c1=O)CC(OCC(C)C)CC2 (stereo not drawn) [1.11] | 1 | 1 | 1 |  |
| CCc1cc(C)cc(CC)c1-c1c(OC(=O)C(C)(C)C)n2n(c1=O)CC(O)C(O)C2 (stereo not drawn) [1.40] | 1 | 1 | 2 |  |
| CCc1cc(C)cc(CC)c1-c1c(O)n2n(c1=O)CC1OC3(CCCCC3)OC1C2 (stereo not drawn) [1.27] | 1 | 1 | 2 |  |
| CCc1cc(C)cc(CC)c1-c1c(O)n2n(c1=O)CC(OCCOC)CC2 (stereo not drawn) [1.15] | 1 | 2 | 1 |  |
| CCc1cc(C)cc(CC)c1-c1c(O)n2n(c1=O)CC(OCC(=O)O)CC2 (stereo not drawn) [1.19] | 1 | 1 | 1 |  |
| CCc1cc(C)cc(CC)c1-c1c(OC(=O)C(C)(C)C)n2n(c1=O)CCC(F)(F)CC2 [1.43] | 1 | 2 | 2 |  |

— patent US7459414B2, “Herbicides” (Syngenta Crop Protection, Inc., priority 2002, dated 2008)
